# According to patent publication US7351744B2, “Naphthalene derivatives as termite repellents and toxicants” (Board of Supervisors of Louisiana State University and …, priority 2003, dated 2008):
# Columns and labels:
# C. formosanus workers = experiment: Repellency, choice of treated and untreated filter paper in three-chambered containers; format: in vivo, Coptotermes formosanus; conditions: for concentration of strong repellency and significant reduction in feeding activity: alternative food choice, 15 days
# Description: Thirty-five transparent plastic containers (17.7 cm×8.0 cm×4.0 cm), Pioneer Packaging Co., North Dixon, Ky.), each with three chambers (8.0 cm×5.75 cm×4.0 cm), were used. An opening (3.5 cm×0.3 cm) was made at the bottom of each of the two inner walls, connecting the three chambers and allowing termites to move between the chambers. For each container, filter papers (Whatman #2, 5.5 cm diameter) were placed in the two lateral side chambers. For each treatment, five replicates (five containers) were used; for each replicate, one side chamber was marked “treated” and the other side chamber marked “untreated.”
# A stock solution of 2′-acetonaphthone was prepared by dissolving 0.952 mg (AI) in 5 ml ethanol (190.4 mg/l). One-half of this solution was used to apply 500 μl to filter paper placed in the “treated” chamber to test the highest concentration of 2′-acetonaphthone, 4.0 μg/cm^2. The remaining volume, 2.5 ml, was diluted by adding an equal volume of ethanol. One-half of this new solution was used to add 500 μl to each of 5 filter papers in a “treated” chamber to achieve a concentration of 2.0 μg/cm^2. This dilution and application step was repeated four more times to make four additional concentrations equivalent to 1.0, 0.50, 0.250 and 0.125 μg/cm^2. Filter papers placed in the “untreated” chambers were left untreated. Five containers served as replicates for each tested concentration. Five containers served as controls, in which filter paper in the “treated” chamber received 500 μl ethanol, and that in the “untreated” chamber was left untreated.
# Containers were kept at ambient conditons overnight for ethanol evaporation, and then all filter papers were weighed. In the middle chamber of all containers, 55 g wetted sand (50 g sand mixed with 5 ml DDH2O) was added, then packed and leveled to allow for clear visualization of tunnels along the bottom of the containers. Treated and untreated filter papers were wetted with 250 μl DDH2O. Then 100 workers and 5 soldiers from colony E were released onto the surface of the sand in the middle chamber.
# The containers were covered and incubated for 12 days at 26.6° C. and 70% RH, and checked every 2 days for moisture content. The number of termites in the two lateral chambers was recorded daily for 3 days. On day 12, the bottom of each container was scanned (ScanJet 4c, Hewlett-Packard, Palo Alto, Calif.) and the images printed to measure and calculate the areas of tunnels. The experiment was ended on day 12, and the number of living termites in each container counted. The treated and untreated filter papers were gently cleaned using deionized water and a small brush to remove all debris. Filter papers were then oven dried at 60° C. for 3 h, and re-weighed to calculate food consumption.
# A second trial was conducted with higher concentrations of 2′-acetonaphthone (5 to 40 μ/cm^2) using the above technique with some modifications. A stock solution (1900 mg/l) was prepared by dissolving 0.038 g (AI) 2′-acetonaphthone in 20 ml ethanol. Dilutions were made by taking 6.0, 4.5, 3.0, 1.5, and 0.75 ml from the original stock, and adjusting the volume of each to 6.0 ml with ethanol to yield the following concentrations: 1900.0, 1425.0, 950.0, 475.0, 237.5 mg/l, respectively. For each concentration, ten containers were used, with the filter paper in the “treated” chamber coated with 500 μl of the tested concentration. Filter papers placed in the “untreated” chamber were left untreated. For controls, ten containers were similarly handled except that the filter paper in the “treated” chamber was coated with 500 μl ethanol. The solvent was allowed to evaporate overnight at ambient conditions. The final concentrations of 2′-acetonaphthone on the filter papers were 5, 10, 20, 30, and 40 μg/cm^2.
# The ten containers for each concentration were equally divided into two equal sub-groups. […]
# [1] = Longevity and volatility of the eleven chemicals; format: physicochemical; conditions: among the eleven chemicals tested
# [2] = test system: C. formosanus workers and soldiers; experiment: Treated filter paper as the sole food source; format: in vivo, Coptotermes formosanus; conditions: for Percent survival: colonies C and WB combined
# Protocol: To assay the effect of 2′-acetonaphthone on termites when added to a sole food source, acute and cumulative toxicities of 2′-acetonaphthone-treated filter paper (Whatman #2) and balsa wood (Ochroma lagopus Swartz) slices (2.3 cm×4.0 cm) were evaluated. Seven concentrations (0, 1, 10, 50, 100, 500, and 1000 mg/l) were prepared in 100 ml ethanol. Six filter papers and six wood slices were soaked in each concentration for 4 h; control filter papers and wood slices were soaked only in ethanol. After treatment, the food sources were kept overnight at ambient conditions for solvent evaporation. Eighty-four plastic containers (5.5 cm diameter×3.7 cm height) were provided with 22 g of wetted sand (20 g sand (fine blasting sand #4, Cement Products Inc., Baton Rouge, La.) mixed with 2 ml DDH2O). Then either a filter paper or a wood slice was separately placed to fit on the surface of the wetted sand and wetted with DDH2O (250 μl). Into each container, fifty workers and 20 soldiers were placed on the surface of the filter paper or wood slice. For each concentration and food sourse, three replicates received termites from colony C, and three replicates received termites from colony WB. The containers were covered and incubated for 10 days at 27.4° C. and 70% RH. Containers were monitored everytwo days to ensure suitable moisture. On days 1, 5 and 10, the number of living workers and soldiers were counted. An average percent survival was calculated for each treatment. (See Tables 2 and 3).
smiles,measurement,setting,value
CC(=O)c1ccc2ccccc2c1 [2′-acetonaphthone],concentration of strong repellency and significant reduction in feeding activity,C. formosanus workers,≥ 20 μg/cm^2
same,concentration of strong repellency and significant reduction in feeding activity,C. formosanus workers; listed as 2′-Acetonaphthone,≥ 20.0 μg/cm^2
same,concentration of strong repellency and significant reduction in feeding activity,C. formosanus workers; listed as 2′-aceetonaphthone,≥ 20.0 μg/cm^2
same,concentration of strong repellency and significant reduction in feeding activity,C. formosanus workers; listed as 2′-acetonapththone,≥ 20 μg/cm^2
same,Survival rates after 15 days exposure,"C. formosanus workers; concentrations ≧20 μg/cm^2, control 63.0%, difference not significant",45.0-51.2%
same,concentration with significant differences in termite distribution between the chambers,C. formosanus workers; day 8,≥ 5.0 μg/cm^2
same,concentration at which repellent,C. formosanus workers; untreated food source available,5 μg/cm^2 filter paper
same,concentration with significantly more termites in the untreated chamber than in the treated chamber,C. formosanus workers; within the first 3 days,≥ 10.0 μg/cm^2
same,longevity,[1],highest longevity
same,volatility,[1],lowest volatility
same,Percent survival,"[2]; filter paper 1 mg/l, Day 1, Soldier",84.17 ± 9.26 a %
same,Percent survival,"[2]; filter paper 1 mg/l, Day 1, Worker",87.67 ± 5.83 a %
same,Percent survival,"[2]; filter paper 1 mg/l, Day 5, Soldier",58.33 ± 10.14 a %
same,Percent survival,"[2]; filter paper 1 mg/l, Day 5, Worker",73.0 ± 8.24 a %
same,Percent survival,"[2]; filter paper 1 mg/l, Day 10, Soldier",60.83 ± 13.07 a %
same,Percent survival,"[2]; filter paper 1 mg/l, Day 10, Worker",55.67 ± 8.98 a %
same,Percent survival,"[2]; filter paper 10 mg/l, Day 1, Soldier",80.0 ± 9.49 a %
same,Percent survival,"[2]; filter paper 10 mg/l, Day 1, Worker",84.0 ± 4.95 a %
same,Percent survival,"[2]; filter paper 10 mg/l, Day 5, Soldier",56.67 ± 12.49 a %
same,Percent survival,"[2]; filter paper 10 mg/l, Day 5, Worker",66.67 ± 9.71 ab %
same,Percent survival,"[2]; filter paper 10 mg/l, Day 10, Soldier",50.0 ± 12.91 a %
same,Percent survival,"[2]; filter paper 10 mg/l, Day 10, Worker",53.67 ± 12.92 a %
same,Percent survival,"[2]; filter paper 50 mg/l, Day 1, Soldier",72.50 ± 11.46 a %
same,Percent survival,"[2]; filter paper 50 mg/l, Day 1, Worker",80.33 ± 9.76 a %
same,Percent survival,"[2]; filter paper 50 mg/l, Day 5, Soldier",42.50 ± 9.56 a %
same,Percent survival,"[2]; filter paper 50 mg/l, Day 5, Worker",68.33 ± 11.56 ab %
same,Percent survival,"[2]; filter paper 50 mg/l, Day 10, Soldier",35.83 ± 8.41 a %
same,Percent survival,"[2]; filter paper 50 mg/l, Day 10, Worker",55.0 ± 12.07 a %
same,Percent survival,"[2]; filter paper 100 mg/l, Day 1, Soldier",73.33 ± 5.87 a %
same,Percent survival,"[2]; filter paper 100 mg/l, Day 1, Worker",80.0 ± 6.68 a %
same,Percent survival,"[2]; filter paper 100 mg/l, Day 5, Soldier",33.33 ± 11.53 a %
same,Percent survival,"[2]; filter paper 100 mg/l, Day 5, Worker",48.33 ± 10.33 b %
same,Percent survival,"[2]; filter paper 100 mg/l, Day 10, Soldier",17.50 ± 5.74 b %
same,Percent survival,"[2]; filter paper 100 mg/l, Day 10, Worker",40.67 ± 9.98 a %
same,Percent survival,"[2]; filter paper 500 mg/l, Day 1, Soldier",14.17 ± 5.23 b %
same,Percent survival,"[2]; filter paper 500 mg/l, Day 1, Worker",18.33 ± 6.60 b %
same,Percent survival,"[2]; filter paper 500 mg/l, Day 5, Soldier",0.0 ± 0.0 b %
same,Percent survival,"[2]; filter paper 500 mg/l, Day 5, Worker",0.0 ± 0.0 c %
same,Percent survival,"[2]; filter paper 500 mg/l, Day 10, Soldier",0.0 ± 0.0 c %
same,Percent survival,"[2]; filter paper 500 mg/l, Day 10, Worker",0.0 ± 0.0 b %
same,Percent survival,"[2]; filter paper 1000 mg/l, Day 1, Soldier",1.67 ± 1.67 b %
same,Percent survival,"[2]; filter paper 1000 mg/l, Day 1, Worker",6.67 ± 6.67 b %
same,Percent survival,"[2]; filter paper 1000 mg/l, Day 5, Soldier",0.0 ± 0.0 b %
same,Percent survival,"[2]; filter paper 1000 mg/l, Day 5, Worker",0.0 ± 0.0 c %
same,Percent survival,"[2]; filter paper 1000 mg/l, Day 10, Soldier",0.0 ± 0.0 c %
same,Percent survival,"[2]; filter paper 1000 mg/l, Day 10, Worker",0.0 ± 0.0 b %
same,concentration acutely toxic when applied to a sole food source,[2]; sole food source,0.1 % (wt/v)
same,concentration at which termites showed decreased survival,[2]; sole food source impregnated (filter paper or wood slice),1000 mg/L
